Assay results from patent US5393743A, “Erythromycin derivatives” (Abbott Laboratories, priority 1993, dated 1995).

Columns and labels:
[1] = tested on: Escherichia coli SS; assay: microbe, parasite or virus in culture; conditions: Escherichia coli
Procedure: (§1) Representative compounds of the present invention were assayed in vitro for antibacterial activity as follows: Twelve petri dishes containing successive aqueous dilutions of the test compound mixed with 10 mL of sterilized Brain Heart Infusion (BHI) agar (Difco 0418-01-5) were prepared. Each plate was inoculated with 1:100 (or 1:10 for slow-growing strains, such as Micrococcus and Streptococcus) dilutions of up to 32 different microorganisms, using a Steers replicator block. The inoculated plates were incubated 35°-37° C. for 20 to 24 hours. In addition, a control plate, using BHI agar containing no test compound, was prepared and incubated at the beginning and end of each test.
(§2) An additional plate containing a compound having known susceptibility patterns for the organisms being tested and belonging to the same antibiotic class as the test compound was also prepared and incubated as a further control, as well as to provide test-to-test comparability. Erythromycin A was used for this purpose.
(§3) After incubation, each disk was read. The minimum inhibitory concentration (MIC) was defined as the lowest concentration of drug yielding no growth, a slight haze, or sparsely isolated colonies on the inoculum spot as compared to the growth control.

[2] = tested on: Micrococcus luteus ATCC 9341; assay: microbe, parasite or virus in culture; conditions: Micrococcus luteus, ATCC9341
Procedure: as §1, §2, §3

[3] = tested on: Pseudomonas aeruginosa K799/61; assay: In vitro antibacterial activity, agar dilution MIC; format: cell-based; conditions: BHI agar, 35°-37° C., 20 to 24 hours, read-out: MIC
[4] = tested on: Streptococcus pyogenes 2548 induc; assay: In vitro antibacterial activity, agar dilution MIC; format: cell-based; conditions: Streptococcus pyogenes 2548 induc; BHI agar, 35°-37° C., 20 to 24 hours; read-out: MIC
Procedure: as §1, §2, §3

[5] = tested on: Enterobacter aerogenes ATCC 13048; assay: In vitro antibacterial activity, agar dilution MIC; format: cell-based; conditions: Klebsiella aerogenes, ATCC13048; Enterobacter aerogenes ATCC 13048; BHI agar, 35°-37° C., 20 to 24 hours; read-out: MIC
Procedure: as §1, §2, §3

[6] = tested on: Klebsiella pneumoniae ATCC 8045; assay: In vitro antibacterial activity, agar dilution MIC; format: cell-based; conditions: ATCC8045; Klebsiella pneumoniae ATCC 8045; BHI agar, 35°-37° C., 20 to 24 hours; read-out: MIC
Procedure: as §1, §2, §3

[7] = tested on: Pseudomonas aeruginosa 5263; assay: In vitro antibacterial activity, agar dilution MIC; format: cell-based; conditions: Pseudomonas aeruginosa 5263; BHI agar, 35°-37° C., 20 to 24 hours; read-out: MIC
Procedure: as §1, §2, §3

[8] = tested on: Staphylococcus aureus A5177; assay: In vitro antibacterial activity, agar dilution MIC; format: cell-based; conditions: Staphylococcus aureus A5177; BHI agar, 35°-37° C., 20 to 24 hours; read-out: MIC
Procedure: as §1, §2, §3

[9] = tested on: Streptococcus pyogenes EES61; assay: In vitro antibacterial activity, agar dilution MIC; format: cell-based; conditions: Streptococcus pyogenes EES61; BHI agar, 35°-37° C., 20 to 24 hours; read-out: MIC
Procedure: as §1, §2, §3

[10] = tested on: Providencia stuartii CMX 640; assay: In vitro antibacterial activity, agar dilution MIC; format: cell-based; conditions: CMX640; Providencia stuartii CMX 640; BHI agar, 35°-37° C., 20 to 24 hours; read-out: MIC
Procedure: as §1, §2, §3

[11] = tested on: Acinetobacter calcoaceticus CMX 669; assay: In vitro antibacterial activity, agar dilution MIC; format: cell-based; conditions: Acinetobacter calcoaceticus, CMX669
Procedure: as §1, §2, §3

[12] = tested on: Pseudomonas aeruginosa A5007; assay: In vitro antibacterial activity, agar dilution MIC; format: cell-based; conditions: Pseudomonas aeruginosa A5007; BHI agar, 35°-37° C., 20 to 24 hours; read-out: MIC
Procedure: as §1, §2, §3

[13] = tested on: Pseudomonas aeruginosa 2862; assay: In vitro antibacterial activity, agar dilution MIC; format: cell-based; conditions: Pseudomonas aeruginosa 2862; BHI agar, 35°-37° C., 20 to 24 hours; read-out: MIC
Procedure: as §1, §2, §3

[14] = tested on: Pseudomonas cepacia 2961; assay: In vitro antibacterial activity, agar dilution MIC; format: cell-based; conditions: Burkholderia cepacia; Pseudomonas cepacia 2961; BHI agar, 35°-37° C., 20 to 24 hours; read-out: MIC
Procedure: as §1, §2, §3

[15] = tested on: Staphylococcus aureus 1775 Cipro R; assay: In vitro antibacterial activity, agar dilution MIC; format: cell-based; conditions: Staphylococcus aureus, 1775CIPROR
Procedure: as §1, §2, §3

[16] = tested on: Escherichia coli Juhl; assay: In vitro antibacterial activity, agar dilution MIC; format: cell-based; conditions: Escherichia coli Juhl; BHI agar, 35°-37° C., 20 to 24 hours; read-out: MIC
Procedure: as §1, §2, §3

[17] = tested on: Staphylococcus aureus ATCC 6538P; assay: In vitro antibacterial activity, agar dilution MIC; format: cell-based; conditions: ATCC6538P; Staphylococcus aureus ATCC 6538P; BHI agar, 35°-37° C., 20 to 24 hours; read-out: MIC
Procedure: as §1, §2, §3

[18] = tested on: Staphylococcus epidermidis 3519; assay: In vitro antibacterial activity, agar dilution MIC; format: cell-based; conditions: Staphylococcus epidermidis 3519; BHI agar, 35°-37° C., 20 to 24 hours; read-out: MIC
Procedure: as §1, §2, §3

[19] = tested on: Streptococcus pyogenes 930 const; assay: In vitro antibacterial activity, agar dilution MIC; format: cell-based; conditions: Streptococcus pyogenes 930 const; BHI agar, 35°-37° C., 20 to 24 hours; read-out: MIC
Procedure: as §1, §2, §3

[20] = tested on: Pseudomonas aeruginosa K799/WT; assay: In vitro antibacterial activity, agar dilution MIC; format: cell-based; conditions: Pseudomonas aeruginosa K799/WT; BHI agar, 35°-37° C., 20 to 24 hours; read-out: MIC
Procedure: as §1, §2, §3

[21] = tested on: Staphylococcus aureus CMX 642a; assay: In vitro antibacterial activity, agar dilution MIC; format: cell-based; conditions: CMX642A; Staphylococcus aureus CMX 642a; BHI agar, 35°-37° C., 20 to 24 hours; read-out: MIC
Procedure: as §1, §2, §3

[22] = tested on: Staphylococcus aureus NCTC 10649; assay: In vitro antibacterial activity, agar dilution MIC; format: cell-based; conditions: NCTC10649; Staphylococcus aureus NCTC 10649; BHI agar, 35°-37° C., 20 to 24 hours; read-out: MIC
Procedure: as §1, §2, §3

[23] = tested on: Pseudomonas aeruginosa BMH10; assay: In vitro antibacterial activity, agar dilution MIC; format: cell-based; conditions: Pseudomonas aeruginosa BMH10; BHI agar, 35°-37° C., 20 to 24 hours; read-out: MIC
Procedure: as §1, §2, §3

[24] = tested on: Micrococcus luteus 4698; assay: In vitro antibacterial activity, agar dilution MIC; format: cell-based; conditions: Micrococcus luteus 4698; BHI agar, 35°-37° C., 20 to 24 hours; read-out: MIC
Procedure: as §1, §2, §3

[25] = tested on: Staphylococcus aureus A5278; assay: In vitro antibacterial activity, agar dilution MIC; format: cell-based; conditions: Staphylococcus aureus, A5278
Procedure: as §1, §2, §3

[26] = tested on: Enterococcus faecium ATCC 8043; assay: In vitro antibacterial activity, agar dilution MIC; format: cell-based; conditions: ATCC8043; Enterococcus faecium ATCC 8043; BHI agar, 35°-37° C., 20 to 24 hours; read-out: MIC
Procedure: as §1, §2, §3

[27] = tested on: Streptococcus agalactiae 508; assay: In vitro antibacterial activity, agar dilution MIC; format: cell-based; conditions: Streptococcus agalactiae 508; BHI agar, 35°-37° C., 20 to 24 hours; read-out: MIC
Procedure: as §1, §2, §3

[28] = tested on: Escherichia coli KNK 437; assay: In vitro antibacterial activity, agar dilution MIC; format: cell-based; conditions: KNK437; Escherichia coli KNK 437; BHI agar, 35°-37° C., 20 to 24 hours; read-out: MIC
Procedure: as §1, §2, §3

[29] = tested on: Staphylococcus aureus CMX 553; assay: In vitro antibacterial activity, agar dilution MIC; format: cell-based; conditions: CMX553; Staphylococcus aureus CMX 553; BHI agar, 35°-37° C., 20 to 24 hours; read-out: MIC
Procedure: as §1, §2, §3

[30] = tested on: Escherichia coli H560; assay: In vitro antibacterial activity, agar dilution MIC; format: cell-based; conditions: Escherichia coli H560; BHI agar, 35°-37° C., 20 to 24 hours; read-out: MIC
Procedure: as §1, §2, §3

[31] = tested on: Escherichia coli DC-2; assay: In vitro antibacterial activity, agar dilution MIC; format: cell-based; conditions: DC2; Escherichia coli DC-2; BHI agar, 35°-37° C., 20 to 24 hours; read-out: MIC
Procedure: as §1, §2, §3

[32] = tested on: Streptococcus bovis A5169; assay: In vitro antibacterial activity, agar dilution MIC; format: cell-based; conditions: Streptococcus equinus, A5169
Procedure: as §1, §2, §3

Measured: MIC

CC[C@H]1OC(=O)[C@H](C)[C@@H](O[C@H]2C[C@](C)(F)[C@@H](OC)[C@H](C)O2)[C@H](C)[C@@H](O[C@@H]2O[C@H](C)C[C@H](N(C)C)[C@H]2O)[C@@]2(C)CC(C)=C(O2)[C@H](C)[C@H]2OC(=O)O[C@@]21C [Example 17, (3"S)-8,9-Anhydro-11-O,12-O-carbonyl-3"-fluoro-3"-desmethoxy-4"-O-methylerythromycin A-6,9-hemiketal]
0.2 µg/mL: [9] | [27]
12.5 µg/mL: [8] | [19]
25 µg/mL: [11] | [15] | [25]
1.56 µg/mL: [4] | [17] | [18] | [21] | [22] | [24] | [29]
50 µg/mL: [3]
3.1 µg/mL: [1]
0.1 µg/mL: [2] | [32]
0.39 µg/mL: [26]
> 100 µg/mL: all other assays above
